Test results from PMC9785863, “Thioether and Ether Furofuran Lignans: Semisynthesis, Reaction Mechanism, and Inhibitory Effect against α-Glucosidase and Free Radicals” (Molecules, 2022).

Each compound was assayed against T1, rat intestinal maltase (assay: maltose hydrolysis, glucose assay kit, Lineweaver-Burk with secondary replots). Details: mixed inhibition; maltose 0.5-8 mM; pH 6.9, 37 °C.
T1 construct: gene Mgam; native, crude extract of rat intestinal acetone powder (Sigma), not purified; maltose-hydrolysing activity, shared by maltase-glucoamylase and sucrase-isomaltase
Type: biochemical
Text: maltose hydrolysis, glucose assay kit, Lineweaver-Burk with secondary replots on rat intestinal maltase

Row | Ki | Structure (SMILES)
1 | 0.03 mM | CC(C)(C)c1cc(SC2OCC3C(c4ccc5c(c4)OCO5)OCC23)cc(C(C)(C)C)c1O (stereo not drawn) [2α-7o]

What follows are compounds tested against T1, rat intestinal maltase (assay: maltose hydrolysis, glucose assay kit, absorbance at […] nm). Details: maltose (2 mM stock), 0.1 M phosphate pH 6.9, 37 °C, 10 min; read-out: α-Glucosidase Inhibitory Effect (IC50, mM) ^a / Maltase.
Type: biochemical

Row | Structure (SMILES) | IC50
2 | OCCCCCCS[C@H]1OC[C@H]2[C@@H]1CO[C@@H]2c1ccc2c(c1)OCO2 [2α-7b] | > 30 mM
3 | Oc1ccc(S[C@H]2OC[C@H]3[C@@H]2CO[C@@H]3c2ccc3c(c2)OCO3)cc1 [2α-7f] | 14.7 ± 1 mM
4 | c1cc2c(cc1[C@H]1OC[C@H]3[C@@H]1CO[C@@H]3SC1CCCCC1)OCO2 [2α-7c] | > 30 mM
5 | CCCCCCCCS[C@H]1OC[C@H]2[C@@H]1CO[C@@H]2c1ccc2c(c1)OCO2 [2α-7a] | > 30 mM

Now from value to compound:

Row | IC50 | Structure (SMILES)
6 | 1.4 ± 0.2 mM | C[C@H]1O[C@H](O[C@H]2[C@H](O)[C@@H](O)[C@@H](O[C@H]3[C@H](O)[C@@H](O)C(O)O[C@@H]3CO)O[C@@H]2CO)[C@H](O)[C@@H](O)[C@@H]1N[C@H]1C=C(CO)[C@@H](O)[C@H](O)[C@H]1O (stereo partly drawn) [acarbose, reference compound]
7 | > 30 mM | CCCCCCCCO[C@H]1OC[C@H]2[C@@H]1CO[C@@H]2c1ccc2c(c1)OCO2 [2α-9b]
8 | 11.8 ± 0.3 mM | CC(C)(C)c1cc(SC2OCC3C(c4ccc5c(c4)OCO5)OCC23)cc(C(C)(C)C)c1O (stereo not drawn) [2α-7o]
9 | 14.2 ± 0.8 mM | Oc1ccc(S[C@@H]2OC[C@H]3[C@@H]2CO[C@@H]3c2ccc3c(c2)OCO3)cc1 [2β-7f]
